According to patent publication US11339144B2 (Navitor Pharmaceuticals, Inc., priority 2017, dated 2022):

What was measured:
[1] = target: HA-GST-Rheb (GTP-γ-S loaded) activating mTORC1 (Homo sapiens (Human), UniProt Q15382); test: Rheb-dependent in vitro kinase assay (Rheb-IVK; LanthaScreen or Western readout); assay type: biochemical; details: Rheb-dependent in vitro kinase assay; read-out: IVK IC50
Rheb = Rheb (Homo sapiens (Human), UniProt Q15382); test: Affinity Selection Mass Spectrometry (ASMS); assay type: binding; details: affinity (R3/R0) in Affinity Selection Mass Spectrometry assay
In short: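 Affinity selection used 2 μM compound with 60 μM Rheb and 180 μM GDP for 30 min at room temperature. After 10 kDa ultrafiltration washes, protein was denatured in MeCN and bound compound quantified by C18 UPLC with Q-TOF MS, against a no-protein control.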

Rheb, sequence (Q15382 1-169 limits assumed): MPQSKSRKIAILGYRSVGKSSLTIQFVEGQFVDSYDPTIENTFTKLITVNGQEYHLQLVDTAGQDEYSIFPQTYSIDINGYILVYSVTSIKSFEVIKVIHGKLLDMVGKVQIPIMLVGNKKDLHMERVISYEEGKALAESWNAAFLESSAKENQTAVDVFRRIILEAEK
HA-GST-Rheb (GTP-γ-S loaded) activating mTORC1, sequence (Q15382 1-181): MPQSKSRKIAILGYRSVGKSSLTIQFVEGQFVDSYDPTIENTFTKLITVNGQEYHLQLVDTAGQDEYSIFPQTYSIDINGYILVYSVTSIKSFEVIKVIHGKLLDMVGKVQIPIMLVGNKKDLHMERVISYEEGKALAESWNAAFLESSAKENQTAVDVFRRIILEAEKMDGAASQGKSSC

| SMILES | IC50 [1] | ASMS (R3/R0) (Rheb) |
| --- | --- | --- |
| O=C(Nc1ccc(-c2cnco2)cc1)c1cc2c(Sc3ccc(Cl)cc3)cc(Cl)cc2[nH]1 [I-128, 6-chloro-4-(4-chlorophenylthio)-N-(4-(oxazol-5-yl)phenyl)-1H-indole-2-carboxamide] | < 10 µM | A (an affinity (R3/R0)>100%) |
| O=C(O)c1cc2c(Sc3ccc(OC(F)(F)F)cc3)cc(Cl)cc2[nH]1 [I-129, 6-chloro-4-(4-(trifluoromethoxy)phenylthio)-1H-indole-2-carboxylic acid] | 10 to 100 µM | B (an affinity (R3/R0) between 100% and 20%) |
| O=C(NCCn1ccc2ccccc21)c1cc2c(Sc3ccc(Cl)cc3)cc(Cl)cc2[nH]1 [I-131] | > 100 µM | B (an affinity (R3/R0) between 100% and 20%) |
| NC(=O)C1CCCN(C(=O)c2cc3c(Sc4ccc(Cl)cc4)cc(Cl)cc3[nH]2)C1 (centres unmarked) [I-132] | > 100 µM | B (an affinity (R3/R0) between 100% and 20%) |
| OCc1cc2c(Br)cc(Sc3ccc(Cl)c(Cl)c3)cc2[nH]1 [I-133, (4-bromo-6-(3,4-dichlorophenylthio)-1H-indol-2-yl)methanol] | < 10 µM | B (an affinity (R3/R0) between 100% and 20%) |
| OCc1cc2c(Sc3ccc4ccccc4c3)cc(Cl)cc2[nH]1 [I-134, (6-chloro-4-(naphthalen-2-ylthio)-1H-indol-2-yl)methanol] | 10 to 100 µM | B (an affinity (R3/R0) between 100% and 20%) |
| COc1ccc(Sc2cc(Cl)cc3[nH]c(CO)cc23)cc1OC [I-135] | > 100 µM | B (an affinity (R3/R0) between 100% and 20%) |
| O=C(NCC1CCN(Cc2ccccc2)C1)c1cc2c(Sc3ccc(Cl)cc3)cc(Cl)cc2[nH]1 (centres unmarked) [I-136] | > 100 µM | A (an affinity (R3/R0)>100%) |
| CS(=O)(=O)CCNC(=O)c1cc2c(Sc3ccc(Cl)cc3)cc(Cl)cc2[nH]1 [I-137] | > 100 µM | A (an affinity (R3/R0)>100%) |
| O=C(O)c1cc2c(Br)cc(Sc3ccc(Cl)c(Cl)c3)cc2[nH]1 [I-139, 4-bromo-6-(3,4-dichlorophenylthio)-1H-indole-2-carboxylic acid] | < 10 µM | B (an affinity (R3/R0) between 100% and 20%) |
| O=C(NCC1CCOCC1)c1cc2c(Sc3ccc(Cl)cc3)cc(Cl)cc2[nH]1 [I-143] | > 100 µM | B (an affinity (R3/R0) between 100% and 20%) |
| COc1cccc(CCNC(=O)c2cc3c(Sc4ccc(Cl)cc4)cc(Cl)cc3[nH]2)c1 [I-144] | > 100 µM | B (an affinity (R3/R0) between 100% and 20%) |
| OCc1cc2c(Br)cc(SCc3ccc(Cl)cc3)cc2[nH]1 [I-145, (4-bromo-6-(4-chlorobenzylthio)-1H-indol-2-yl)methanol] | 10 to 100 µM | B (an affinity (R3/R0) between 100% and 20%) |
| O=C1CCC(CNC(=O)c2cc3c(Sc4ccc(Cl)cc4)cc(Cl)cc3[nH]2)N1 (centres unmarked) [I-147] | > 100 µM | A (an affinity (R3/R0)>100%) |
| O=C(NCCN1CCCC1)c1cc2c(Sc3ccc(Cl)cc3)cc(Cl)cc2[nH]1 [I-148, 6-chloro-4-(4-chlorophenylthio)-N-(2-(pyrrolidin-1-yl)ethyl)-1H-indole-2-carboxamide] | 10 to 100 µM | B (an affinity (R3/R0) between 100% and 20%) |
| O=C(NCc1ccccn1)c1cc2c(Sc3ccc(Cl)cc3)cc(Cl)cc2[nH]1 [I-149, 6-chloro-4-(4-chlorophenylthio)-N-(pyridin-2-ylmethyl)-1H-indole-2-carboxamide] | 10 to 100 µM | B (an affinity (R3/R0) between 100% and 20%) |
| CC(=O)c1cc2c(Oc3ccccc3)cc(Cl)cc2[nH]1 [I-150] | > 100 µM | C (an affinity (R3/R0)<20%) |
| C[Si](C)(C)CC(O)c1cc2c(Oc3ccccc3)cc(Cl)cc2[nH]1 (centres unmarked) [I-159, 1-(6-chloro-4-phenoxy-1H-indol-2-yl)-2-(trimethylsilyl)ethanol] | 10 to 100 µM | C (an affinity (R3/R0)<20%) |
| CC(C)(C)OC(=O)c1ccc(Cn2c(C(=O)O)cc3c(Br)cc(Oc4ccccc4)cc32)cc1 [I-167, 4-bromo-1-(4-(tert-butoxycarbonyl)benzyl)-6-phenoxy-1H-indole-2-carboxylic acid] | < 10 µM | B (an affinity (R3/R0) between 100% and 20%) |

Second part, led by results:

| IC50 [1] | SMILES | ASMS (R3/R0) (Rheb) |
| --- | --- | --- |
| > 100 µM | CC(C)(C)OC(=O)c1ccc(Cn2c(CO)cc3c(Br)cc(Oc4ccccc4)cc32)cc1 [I-151] | C (an affinity (R3/R0)<20%) |
| 10 to 100 µM | OCc1cc2c(Sc3ccc(F)c(F)c3)cc(Cl)cc2[nH]1 [I-152, (6-chloro-4-(3,4-difluorophenylthio)-1H-indol-2-yl)methanol] | B (an affinity (R3/R0) between 100% and 20%) |
| 10 to 100 µM | OCc1cc2c(Sc3ccc(F)cc3)cc(Cl)cc2[nH]1 [I-153, (6-chloro-4-(4-fluorophenylthio)-1H-indol-2-yl)methanol] | B (an affinity (R3/R0) between 100% and 20%) |
| 10 to 100 µM | O=C(O)c1cc2c(Sc3ccc(F)c(F)c3)cc(Cl)cc2[nH]1 [I-155, 6-chloro-4-(3,4-difluorophenylthio)-1H-indole-2-carboxylic acid] | B (an affinity (R3/R0) between 100% and 20%) |
| 10 to 100 µM | O=C(O)c1cc2c(Sc3ccc(F)cc3)cc(Cl)cc2[nH]1 [I-156, 6-chloro-4-(4-fluorophenylthio)-1H-indole-2-carboxylic acid] | B (an affinity (R3/R0) between 100% and 20%) |
| < 10 µM | O=C(O)c1cc2c(Sc3ccc(Cl)cc3Cl)cc(Cl)cc2[nH]1 [I-157, 6-chloro-4-(2,4-dichlorophenylthio)-1H-indole-2-carboxylic acid] | B (an affinity (R3/R0) between 100% and 20%) |
| 10 to 100 µM | O=C(O)Cn1ccc2c(Oc3cc(Cl)ccc3Cl)cc(Cl)cc21 [I-158, 2-(6-Chloro-4-(2,5-dichlorophenoxy)-1H-indol-1-yl)acetic acid] | B (an affinity (R3/R0) between 100% and 20%) |
| > 100 µM | N#Cc1ccc(Cn2ccc3c(Sc4ccc(Cl)cc4Cl)cccc32)cc1 [I-160] | C (an affinity (R3/R0)<20%) |
| < 10 µM | Clc1ccc(Sc2cccc3c2ccn3Cc2ccc(-c3nnn[nH]3)cc2)c(Cl)c1 [I-161, 1-(4-(1H-tetrazol-5-yl)benzyl)-4-(2,4-dichlorophenylthio)-1H-indole] | A (an affinity (R3/R0)>100%) |
| 100 to 300 µM | O=C(O)Cn1c(C(=O)O)cc2c(Oc3cc(Cl)ccc3Cl)cc(Cl)cc21 [I-162, 1-(Carboxymethyl)-6-chloro-4-(2,5-dichlorophenoxy)-1H-indole-2-carboxylic acid] | B (an affinity (R3/R0) between 100% and 20%) |
| > 100 µM | CC(C)(C)OC(=O)c1ccc(Cn2ccc3c(Br)cc(Oc4ccccc4)cc32)cc1 [I-163] | C (an affinity (R3/R0)<20%) |
| 10 to 100 µM | O=C(O)c1ccc(Cn2ccc3c(Br)cc(Oc4ccccc4)cc32)cc1 [I-164, 4-((4-bromo-6-phenoxy-1H-indol-1-yl)methyl)benzoic acid] | B (an affinity (R3/R0) between 100% and 20%) |
| 10 to 100 µM | O=C(O)c1ccc(Cn2c(C(=O)O)cc3c(Br)cc(Oc4ccccc4)cc32)cc1 [I-165, 4-bromo-1-(4-carboxybenzyl)-6-phenoxy-1H-indole-2-carboxylic acid] | B (an affinity (R3/R0) between 100% and 20%) |
| > 100 µM | OCc1ccc(Cn2c(CO)cc3c(Br)cc(Oc4ccccc4)cc32)cc1 [I-166] | B (an affinity (R3/R0) between 100% and 20%) |
| > 100 µM | NCCn1c(CO)cc2c(Oc3ccccc3)cc(Cl)cc21 [I-168] | C (an affinity (R3/R0)<20%) |
| 10 to 100 µM | NC(=O)c1cc2c(Oc3ccccc3)cc(Cl)cc2[nH]1 [I-169, 6-chloro-4-phenoxy-1H-indole-2-carboxamide] | B (an affinity (R3/R0) between 100% and 20%) |
| 10 to 100 µM | NCc1cc2c(Oc3ccccc3)cc(Cl)cc2[nH]1 [I-170, (6-chloro-4-phenoxy-1H-indol-2-yl)methanamine] | B (an affinity (R3/R0) between 100% and 20%) |
| 10 to 100 µM | OCc1cc2c(Oc3cc(Cl)ccc3Cl)cc(Cl)cc2[nH]1 [I-171, (6-Chloro-4-(2,5-dichlorophenoxy)-1H-indol-2-yl)methanol] | B (an affinity (R3/R0) between 100% and 20%) |
| 10 to 100 µM | O=C(O)c1cc2c(Oc3cc(Cl)ccc3Cl)cc(Cl)cc2[nH]1 [I-172, 6-Chloro-4-(2,5-dichlorophenoxy)-1H-indole-2-carboxylic acid] | B (an affinity (R3/R0) between 100% and 20%) |
| 10 to 100 µM | O=C(O)c1cc2c(Cl)cc(Oc3ccccc3)cc2n1Cc1c[nH]cn1 [I-173, 1-((1H-imidazol-4-yl)methyl)-4-chloro-6-phenoxy-1H-indole-2-carboxylic acid] | C (an affinity (R3/R0)<20%) |
| 100 to 300 µM | O=C(O)c1cc2c(Oc3ccccc3)cc(Cl)cc2[nH]1 [I-175, 6-chloro-4-phenoxy-1H-indole-2-carboxylic acid] | B (an affinity (R3/R0) between 100% and 20%) |
| 10 to 100 µM | OCc1cc2c(OCc3cccc(Cl)c3)cc(Cl)cc2[nH]1 [I-176, (6-chloro-4-(3-chlorobenzyloxy)-1H-indol-2-yl)methanol] | B (an affinity (R3/R0) between 100% and 20%) |
| 10 to 100 µM | O=C(NO)c1cc2c(Sc3ccc(Cl)cc3)cc(Cl)cc2[nH]1 [I-177, 6-chloro-4-(4-chlorophenylthio)-N-hydroxy-1H-indole-2-carboxamide] | A (an affinity (R3/R0)>100%) |
| 10 to 100 µM | Clc1ccc(Sc2cc(Cl)cc3[nH]ccc23)cc1 [I-180, 6-chloro-4-(4-chlorophenylthio)-1H-indole] | B (an affinity (R3/R0) between 100% and 20%) |
